Data as given in article PMC8123931 (Nature chemical biology, 2020).
Where two headings read alike, the source gives them in different places.

Experiments:
[1] = target: purified pig brain tubulin (Sus scrofa, UniProt P02550+P02554); test: In vitro microtubule dynamics assay with mCherry-EB3; type: biochemical
[2] = target: T1, EGFR L858R/T790M/C797S (Homo sapiens, UniProt P00533, C797S/L858R/T790M); test: MaMTH-DS assay, EGFR L858R/T790M/C797S bait with CrkII and Hsp90; type: cell-based
[3] = target: T1, EGFR L858R/T790M/C797S; test: In vitro kinase assay, recombinant kinase domain; type: biochemical
[4] = target: EGFR ex19del/T790M/C797S (Homo sapiens, UniProt P00533, C797S/DEL746-750/T790M); test: In vitro kinase assay, recombinant kinase domain; type: biochemical
[5] = target: T1, EGFR L858R/T790M/C797S; test: MaMTH-DS assay and screen, EGFR L858R/T790M/C797S bait with Shc1 prey; type: cell-based

Sequence of purified pig brain tubulin (P02550 whole entry): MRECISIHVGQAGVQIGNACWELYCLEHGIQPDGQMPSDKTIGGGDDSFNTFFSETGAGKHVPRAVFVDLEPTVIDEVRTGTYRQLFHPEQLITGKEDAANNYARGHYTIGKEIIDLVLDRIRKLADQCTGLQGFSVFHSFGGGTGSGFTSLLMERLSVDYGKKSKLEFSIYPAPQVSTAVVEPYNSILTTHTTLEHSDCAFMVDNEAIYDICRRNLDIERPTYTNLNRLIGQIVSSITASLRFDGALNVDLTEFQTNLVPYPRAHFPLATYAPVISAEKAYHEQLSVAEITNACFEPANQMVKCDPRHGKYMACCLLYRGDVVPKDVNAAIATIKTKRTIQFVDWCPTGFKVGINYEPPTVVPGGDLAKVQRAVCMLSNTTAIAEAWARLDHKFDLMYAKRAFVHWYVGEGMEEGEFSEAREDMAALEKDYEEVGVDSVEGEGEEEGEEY
Sequence of purified pig brain tubulin (P02554 whole entry): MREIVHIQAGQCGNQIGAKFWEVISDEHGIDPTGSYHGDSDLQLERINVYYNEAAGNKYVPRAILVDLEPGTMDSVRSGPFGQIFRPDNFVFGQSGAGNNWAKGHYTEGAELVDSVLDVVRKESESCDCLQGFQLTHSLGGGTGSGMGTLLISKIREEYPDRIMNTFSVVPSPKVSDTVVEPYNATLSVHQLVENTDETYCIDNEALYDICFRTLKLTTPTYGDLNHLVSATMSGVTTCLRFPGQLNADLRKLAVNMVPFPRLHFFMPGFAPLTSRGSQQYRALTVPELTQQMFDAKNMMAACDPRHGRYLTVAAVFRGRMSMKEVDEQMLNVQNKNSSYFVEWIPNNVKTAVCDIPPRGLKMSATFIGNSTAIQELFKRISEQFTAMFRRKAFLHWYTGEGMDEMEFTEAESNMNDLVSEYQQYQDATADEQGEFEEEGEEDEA

CCN(CC)c1ccc2cc(-c3nc4ccccc4o3)c(=O)oc2c1 [EMI1, 3-(1,3-benzoxazol-2-yl)-7-(diethylamino)-2H-chromen-2-one]
microtubule dynamics (growth rate, time, catastrophe frequency) [1]: reduced microtubule growth rate and time, while increasing catastrophe frequency
interaction of CrkII with EGFR L858R/T790M/C797S [2]: inhibited interaction of both proteins with EGFR at a level similar to that observed with Shc1
interaction of Hsp90 with EGFR L858R/T790M/C797S [2]: inhibited interaction of both proteins with EGFR at a level similar to that observed with Shc1
inhibition of kinase activity of EGFR triple-mutant protein [3]: no inhibition of the kinase activity
inhibition of kinase activity of EGFR triple-mutant protein [4]: no inhibition of the kinase activity
interaction of Shc1 with EGFR L858R/T790M/C797S (in words) [5]: potently reducing the interaction of EGFR triple mutant with Shc1
interaction of Shc1 with EGFR L858R/T790M/C797S (in words) ([5]; listed as ChemBridge compound 5213777): robust, dose-dependent inhibition
